# From patent US12552755B2, “Cinnamic amide derivative having FXR activating effect, pharmaceutical composition containing the same as active ingredient, and method for preparing the same” (KYUNGSUNG UNIVERSITY INDUSTRY COOPERATION FOUNDATION, priority 2019, dated 2026)
# Target: T1, farnesol X receptor (FXR) (Homo sapiens, UniProt Q96RI1)
# T1 construct: endogenous in cells; host or cells: HepG2
# T1 sequence (Q96RI1 1-486): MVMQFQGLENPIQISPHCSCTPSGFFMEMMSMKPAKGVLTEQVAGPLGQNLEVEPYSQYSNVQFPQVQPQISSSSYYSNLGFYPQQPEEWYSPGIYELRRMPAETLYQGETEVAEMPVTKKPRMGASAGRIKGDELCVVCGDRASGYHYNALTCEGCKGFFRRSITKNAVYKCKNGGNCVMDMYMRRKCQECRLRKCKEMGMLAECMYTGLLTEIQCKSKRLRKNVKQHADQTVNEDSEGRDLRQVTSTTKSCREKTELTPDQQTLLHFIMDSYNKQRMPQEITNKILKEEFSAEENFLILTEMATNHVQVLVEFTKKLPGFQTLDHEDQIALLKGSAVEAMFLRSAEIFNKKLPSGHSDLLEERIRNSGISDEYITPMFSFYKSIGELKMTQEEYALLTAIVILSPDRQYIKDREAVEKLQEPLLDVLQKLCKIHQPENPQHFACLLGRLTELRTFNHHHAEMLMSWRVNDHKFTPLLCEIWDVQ
# Experiment: Farnesol X receptor (FXR) reporter gene assay (dual luciferase) in HepG2 cells
# Type: cell-based
# Conditions: for fold induction at 10 µM: HepG2 cells, drug treatment 24 hours, firefly/renilla luciferase ratio, Con = 1.00; for FXR activating effect compared with GW4064: statement on Table 4 data
# Description: HepG2 cells were purchased from ATCC (Manassas, VA, USA) and cultured in Dulbecco's modified Eagle's medium (DMEM; Hyclone) containing 10% fetal bovine serum (FBS, Hyclone, Logan, UT, USA), 50 units/mL penicillin (Hyclone) and 50 μg/mL streptomycin (Hyclone). All cells were cultured to have a confluency of about 80% to 90% under the conditions of 37° C. and 5% Co2.
# In order to measure FXR transcription factor activity, HepG2 cells (1×10^5 cells/well) were cultured in a 48-well cell culture plate (SPL Life Science Co., Gyeonggido, Korea) for 20 hours and then transduced using Lipofectamin L3000 (Invitrogen, San Diego, CA, USA). Luciferase is an enzyme that catalyzes light-emitting reactions. A plasmid in which the firefly luciferase gene was fused to farnesol X receptor (FXR) and a plasmid in which the renilla luciferase gene was fused to thymidine kinase (TK) were used for transduction. Reacted were 25 μL of serum and antibiotic-free Opti-MEM® (Life Technologies, Grand Island, NY) and 0.5 μL of Lipofectamin L3000 per 0.5 μg of FXR-firefly luciferase plasmid and 10 ng of TK-renilla luciferase plasmid, and the cells were reacted with the reaction mixture for 24 hours. Thereafter, DMEM medium containing 0.1% serum was treated with a drug for 24 hours. After the reaction was completed, the drug-treated culture medium was discarded, and lysis buffer was added at 0.4 ml/well to remove the cells, then the cells were dispensed into a 96-well white plate (SPL Life Science Co.), and the luminescence level was measured using the Dual-glo Luciferase Assay System (Promega, Madison, WI, USA). For the firefly luciferase activity (to see the level of FXR expression) and renilla luciferase activity (to provide a reference value by showing constant expression), the luminescence level was measured using the GloMax Multi Detection System (Promega) and then the relative ratio (firefly luciferase activity/renilla luciferase activity) was calculated.
fold induction at 10 µM,FXR activating effect compared with GW4064,Structure (SMILES)
10,superior to GW4064,"COC(=O)CCNC(=O)/C=C/c1ccc(OCc2c(-c3c(Cl)cccc3Cl)noc2C(C)C)cc1 [KS-043, methyl (E)-3-(3-(4-((3-(2,6-dichlorophenyl)-5-isopropylisoxazol-4-yl)methoxy)phenyl)acrylamido)propanoate]"
2.21,,"COC(=O)CCNC(=O)/C=C/c1ccc(OCc2c(-c3c(Cl)cccc3Cl)noc2C)cc1 [KS-044, methyl (E)-3-(3-(4-((3-(2,6-dichlorophenyl)-5-methylisoxazol-4-yl)methoxy)phenyl)acrylamido)propanoate]"
11.4,superior to GW4064,"CC(C)c1onc(-c2c(Cl)cccc2Cl)c1COc1ccc(/C=C/C(=O)NCCC(=O)O)cc1 [KS-046, (E)-3-(3-(4-((3-(2,6-dichlorophenyl)-5-isopropylisoxazol-4-yl)methoxy)phenyl)acrylamido)propanoic acid]"
3.04,,"Cc1onc(-c2c(Cl)cccc2Cl)c1COc1ccc(/C=C/C(=O)NCCC(=O)O)cc1 [KS-047, (E)-3-(3-(4-((3-(2,6-dichlorophenyl)-5-methylisoxazol-4-yl)methoxy)phenyl)acrylamido)propanoic acid]"
9.55,superior to GW4064,"COC(=O)[C@@H](C)NC(=O)/C=C/c1ccc(OCc2c(-c3c(Cl)cccc3Cl)noc2C(C)C)cc1 [KS-049, methyl (E)-(3-(4-((3-(2,6-dichlorophenyl)-5-isopropylisoxazol-4-yl)methoxy)phenyl)acryloyl)-D-alaninate]"
8.12,superior to GW4064,"CC(C)c1onc(-c2c(Cl)cccc2Cl)c1COc1ccc(/C=C/C(=O)N[C@H](C)C(=O)O)cc1 [KS-052, (E)-(3-(4-((3-(2,6-dichlorophenyl)-5-isopropylisoxazol-4-yl)methoxy)phenyl)acryloyl)-D-alanine]"

# More lines, now with the values behind:
Structure (SMILES),fold induction at 10 µM,FXR activating effect compared with GW4064
"Cc1onc(-c2c(Cl)cccc2Cl)c1COc1ccc(/C=C/C(=O)N[C@H](C(=O)O)C(C)C)cc1 [KS-035, (E)-(3-(4-((3-(2,6-dichlorophenyl)-5-methylisoxazol-4-yl)methoxy)phenyl)acryloyl)-L-valine]",1.65,
"Cc1onc(-c2ccccc2)c1COc1ccc(/C=C/C(=O)N[C@H](C(=O)O)C(C)C)cc1 [KS-036, (E)-(3-(4-((5-methyl-3-phenylisoxazol-4-yl)methoxy)phenyl)acryloyl)-L-valine]",1.24,
"COC(=O)[C@H](Cc1ccccc1)NC(=O)/C=C/c1ccc(OCc2c(-c3c(Cl)cccc3Cl)noc2C(C)C)cc1 [KS-037, methyl (E)-(3-(4-((3-(2,6-dichlorophenyl)-5-isopropylisoxazol-4-yl)methoxy)phenyl)acryloyl)-L-phenylalaninate]",7.95,superior to GW4064
"COC(=O)[C@H](Cc1ccccc1)NC(=O)/C=C/c1ccc(OCc2c(-c3c(Cl)cccc3Cl)noc2C)cc1 [KS-038, methyl (E)-(3-(4-((3-(2,6-dichlorophenyl)-5-methylisoxazol-4-yl)methoxy)phenyl)acryloyl)-L-phenylalaninate]",2.21,
"COC(=O)[C@H](Cc1ccccc1)NC(=O)/C=C/c1ccc(OCc2c(-c3ccccc3)noc2C)cc1 [KS-039, methyl (E)-(3-(4-((5-methyl-3-phenylisoxazol-4-yl)methoxy)phenyl)acryloyl)-L-phenylalaninate]",1.06,
"CC(C)c1onc(-c2c(Cl)cccc2Cl)c1COc1ccc(/C=C/C(=O)N[C@@H](Cc2ccccc2)C(=O)O)cc1 [KS-040, (E)-(3-(4-((3-(2,6-dichlorophenyl)-5-isopropylisoxazol-4-yl)methoxy)phenyl)acryloyl)-L-phenylalanine]",9,superior to GW4064
"Cc1onc(-c2c(Cl)cccc2Cl)c1COc1ccc(/C=C/C(=O)N[C@@H](Cc2ccccc2)C(=O)O)cc1 [KS-041, (E)-(3-(4-((3-(2,6-dichlorophenyl)-5-methylisoxazol-4-yl)methoxy)phenyl)acryloyl)-L-phenylalanine]",3.23,
"Cc1onc(-c2ccccc2)c1COc1ccc(/C=C/C(=O)N[C@@H](Cc2ccccc2)C(=O)O)cc1 [KS-042, (E)-(3-(4-((5-methyl-3-phenylisoxazol-4-yl)methoxy)phenyl)acryloyl)-L-phenylalanine]",1.41,
"COC(=O)CCNC(=O)/C=C/c1ccc(OCc2c(-c3ccccc3)noc2C)cc1 [KS-045, methyl (E)-3-(3-(4-((5-methyl-3-phenylisoxazol-4-yl)methoxy)phenyl)acrylamido)propanoate]",1.2,
"Cc1onc(-c2ccccc2)c1COc1ccc(/C=C/C(=O)NCCC(=O)O)cc1 [KS-048, (E)-3-(3-(4-((5-methyl-3-phenylisoxazol-4-yl)methoxy)phenyl)acrylamido)propanoic acid]",1.13,
"COC(=O)[C@@H](C)NC(=O)/C=C/c1ccc(OCc2c(-c3c(Cl)cccc3Cl)noc2C)cc1 [KS-050, methyl (E)-(3-(4-((3-(2,6-dichlorophenyl)-5-methylisoxazol-4-yl)methoxy)phenyl)acryloyl)-D-alaninate]",2,
"COC(=O)[C@@H](C)NC(=O)/C=C/c1ccc(OCc2c(-c3ccccc3)noc2C)cc1 [KS-051, methyl (E)-(3-(4-((5-methyl-3-phenylisoxazol-4-yl)methoxy)phenyl)acryloyl)-D-alaninate]",1.34,
"Cc1onc(-c2c(Cl)cccc2Cl)c1COc1ccc(/C=C/C(=O)N[C@H](C)C(=O)O)cc1 [KS-053, (E)-(3-(4-((3-(2,6-dichlorophenyl)-5-methylisoxazol-4-yl)methoxy)phenyl)acryloyl)-D-alanine]",1.28,
"Cc1onc(-c2ccccc2)c1COc1ccc(/C=C/C(=O)N[C@H](C)C(=O)O)cc1 [KS-054, (E)-(3-(4-((5-methyl-3-phenylisoxazol-4-yl)methoxy)phenyl)acryloyl)-D-alanine]",0.9,
